Measurements as given in paper PMC11742723, “The clinical-stage drug BTZ-043 accumulates in murine tuberculosis lesions and efficiently acts against Mycobacterium tuberculosis” (Nature Communications, 2025).
Where “and” joins values, the source holds several entries; their conditions need not be identical. Equal entries are not always repeated.

Tests used:
Mtb H37Rv [1] = test: BTZ-043 dose escalation study in Mtb-infected BALB/c mice (pulmonary CFU); format: in vivo, Mycobacterium tuberculosis; settings: for pulmonary CFU counts / mouse: individual female mice
Mtb H37Rv [2] = test: BTZ-043 treatment for 10 days of Mtb-infected IL-13tg mice (pulmonary CFU); format: in vivo, Mycobacterium tuberculosis
Mtb H37Rv [3] = test: Ziehl-Neelsen staining and histology of centrally necrotizing granulomas in IL-13tg mice; format: in vivo, Mycobacterium tuberculosis; settings: 250 mg/kg/day 10 days, versus untreated
Method: Cryosections were fixed with 4% paraformaldehyde/PBS (24 h or 1 h for non-irradiated or irradiated sections, respectively) prior to staining with haematoxylin and eosin (HE), ZN or Heidenhain’s azan trichrome. For immunohistochemical analysis ZN stained cryosections were probed with rabbit polyclonal CD68 antibody (1:200, ab125212, Abcam, Cambridge, UK) which was detected with biotinylated goat anti-rabbit antibody (1:100, 111-065-144, Jackson Immunoresearch, Suffolk, UK)[13]. To visualize lipid droplets, irradiated cryosections were fixed (10% ice-cold formalin/PBS), washed with 60% 2-propanol, and incubated in Oil Red O solution (O0625, Sigma-Aldrich, Taufkirchen, Germany). After washing (60% 2-propanol and water), Gill’s haematoxylin was used for counterstaining. Images were acquired on a BX41 light microscope (Olympus, Hamburg, Germany) using cellSens imaging software (Olympus, Hamburg, Germany) or NIS-Elements software (Nikon, Badhoevedorp, The Netherlands). Post MALDI imaging HE staining was performed with the following protocol[40]: the matrix layer was washed off with MeOH. Rehydrated (2 min in 100%, 70%, 40% EtOH then 100% H2O) samples were submerged in Mayers haematoxylin solution for 12 min followed by 10 min submersion in Na2CO3 (1%) and rinsed with distilled water. Counterstaining was performed by 2-min submersion in 0.5% acidified eosin Y.

[4] = Impact of γ-irradiation on BTZ-043 in spiked liver mimetic tissue cryosections; parameters: species or system mouse; settings: for ng/mg lung tissue, technical replicate 1 / ng/mg lung tissue, technical replicate 2 / Extract concentration, technical replicate 1 / Extract concentration, technical replicate 2 / ng/mg lung tissue, Mean: BTZ-043 spiked liver homogenate section (9.7 µg/g); for Extract concentration, technical replicate 1 / Extract concentration, technical replicate 2: LC-MS/MS; for ng/mg lung tissue, Mean: mean of technical replicates
[5] = BALB/c, mouse, in vivo
[6] = BALB/c, 8 weeks, 3 highest doses (250-1000 mg/kg/day)
[7] = IL-13tg mice, 250 mg/kg/day, 10 days

With `C[C@H]1COC2(CCN(c3nc(=O)c4cc(C(F)(F)F)cc([N+](=O)[O-])c4s3)CC2)O1` [BTZ-043] the “pulmonary CFU counts / mouse” value (Mtb H37Rv [1]; 50 mg/kg BTZ-043, 4 weeks of treatment) was 555882 CFU counts / mouse and 499154 CFU counts / mouse and 2156250 CFU counts / mouse and 558800 CFU counts / mouse and 525176 CFU counts / mouse and 501563 CFU counts / mouse, the “pulmonary CFU counts / mouse” value (Mtb H37Rv [1]; 50 mg/kg BTZ-043, 6 weeks of treatment) was 151667 CFU counts / mouse and 250364 CFU counts / mouse and 426300 CFU counts / mouse and 300706 CFU counts / mouse and 257455 CFU counts / mouse and 439714 CFU counts / mouse and the “pulmonary CFU counts / mouse” value (Mtb H37Rv [1]; 50 mg/kg BTZ-043, 8 weeks of treatment) was 287143 CFU counts / mouse and 182471 CFU counts / mouse and 166050 CFU counts / mouse and 110400 CFU counts / mouse and 84000 CFU counts / mouse. The “pulmonary CFU counts / mouse” value (Mtb H37Rv [1]; 100 mg/kg BTZ-043, 4 weeks of treatment) was 416625 CFU counts / mouse and 429231 CFU counts / mouse and 396000 CFU counts / mouse and 458571 CFU counts / mouse and 415800 CFU counts / mouse and 472500 CFU counts / mouse, the “pulmonary CFU counts / mouse” value (Mtb H37Rv [1]; 100 mg/kg BTZ-043, 6 weeks of treatment) was 34200 CFU counts / mouse and 61091 CFU counts / mouse and 157500 CFU counts / mouse and 207692 CFU counts / mouse and 197308 CFU counts / mouse and 173438 CFU counts / mouse and the “pulmonary CFU counts / mouse” value (Mtb H37Rv [1]; 100 mg/kg BTZ-043, 8 weeks of treatment) was 156000 CFU counts / mouse and 66000 CFU counts / mouse and 39129 CFU counts / mouse and 101769 CFU counts / mouse and 139765 CFU counts / mouse and 67765 CFU counts / mouse. The “pulmonary CFU counts / mouse” value (Mtb H37Rv [1]; 250 mg/kg BTZ-043, 4 weeks of treatment) was 634800 CFU counts / mouse and 254308 CFU counts / mouse and 513000 CFU counts / mouse and 409500 CFU counts / mouse and 484500 CFU counts / mouse and 249923 CFU counts / mouse, the “pulmonary CFU counts / mouse” value (Mtb H37Rv [1]; 250 mg/kg BTZ-043, 6 weeks of treatment) was 49400 CFU counts / mouse and 35888 CFU counts / mouse and 49309 CFU counts / mouse and 39877 CFU counts / mouse and 52521 CFU counts / mouse and 45750 CFU counts / mouse and the “pulmonary CFU counts / mouse” value (Mtb H37Rv [1]; 250 mg/kg BTZ-043, 8 weeks of treatment) was 25080 CFU counts / mouse and 15273 CFU counts / mouse and 21930 CFU counts / mouse and 15218 CFU counts / mouse and 42694 CFU counts / mouse and 15750 CFU counts / mouse. The “pulmonary CFU counts / mouse” value (Mtb H37Rv [1]; 500 mg/kg BTZ-043, 4 weeks of treatment) was 154286 CFU counts / mouse and 324000 CFU counts / mouse and 360000 CFU counts / mouse and 251750 CFU counts / mouse and 312857 CFU counts / mouse and 230769 CFU counts / mouse, the “pulmonary CFU counts / mouse” value (Mtb H37Rv [1]; 500 mg/kg BTZ-043, 6 weeks of treatment) was 54000 CFU counts / mouse and 150231 CFU counts / mouse and 60750 CFU counts / mouse and 101769 CFU counts / mouse and 56100 CFU counts / mouse and 15346 CFU counts / mouse and the “pulmonary CFU counts / mouse” value (Mtb H37Rv [1]; 500 mg/kg BTZ-043, 8 weeks of treatment) was 13200 CFU counts / mouse and 24750 CFU counts / mouse and 35550 CFU counts / mouse and 13714 CFU counts / mouse and 20250 CFU counts / mouse and 14657 CFU counts / mouse. The “pulmonary CFU counts / mouse” value (Mtb H37Rv [1]; 1000 mg/kg BTZ-043, 4 weeks of treatment) was 228000 CFU counts / mouse and 325600 CFU counts / mouse and 166909 CFU counts / mouse and 226154 CFU counts / mouse and 205800 CFU counts / mouse and 140000 CFU counts / mouse, the “pulmonary CFU counts / mouse” value (Mtb H37Rv [1]; 1000 mg/kg BTZ-043, 6 weeks of treatment) was 42075 CFU counts / mouse and 43131 CFU counts / mouse and 54450 CFU counts / mouse and 36450 CFU counts / mouse and 58900 CFU counts / mouse and 98571 CFU counts / mouse and the “pulmonary CFU counts / mouse” value (Mtb H37Rv [1]; 1000 mg/kg BTZ-043, 8 weeks of treatment) was 9208 CFU counts / mouse and 16615 CFU counts / mouse and 22100 CFU counts / mouse and 11500 CFU counts / mouse and 17738 CFU counts / mouse and 28600 CFU counts / mouse. The “reduction of bacterial burden in comparison to the vehicle control group” value (Mtb H37Rv [1]; BALB/c lungs, 4 weeks of therapy, all doses 50-1000 mg/kg/day microcrystalline BTZ-043, oral 5 days/week) was greater than 0.7 log10 CFU, the “antimycobacterial activity compared to INH (25 mg/kg/day)” value (Mtb H37Rv [1]; BALB/c, 6 weeks, 50 mg/kg/day) was “reduced” and the “antimycobacterial activity compared to INH (25 mg/kg/day)” value (Mtb H37Rv [1]; BALB/c, 6 weeks, 100 mg/kg/day) was “comparable”. The “antimycobacterial activity compared to INH (25 mg/kg/day)” value (Mtb H37Rv [1]; BALB/c, 6 weeks, 250, 500 and 1000 mg/kg/day) was “significantly greater antimycobacterial activity than the first-line drug INH”, the “efficacy compared to INH therapy” value (Mtb H37Rv [1]; [6]) was “significantly increased efficacy” and the “pulmonary bacterial burden lower than the vehicle control group” value (Mtb H37Rv [1]; [6]) was “more than 2.4 log10 CFU”. For the same molecule, the “lowest dose with maximum effect (LME)” value (Mtb H37Rv [1]; mouse model of TB (BALB/c), microcrystalline BTZ-043) was 250 mg/kg/day, the “pulmonary CFU / mouse” value (Mtb H37Rv [2]; BTZ-043 [250 mg/kg], 2 weeks of therapy, individual mice, female and male, 250 mg/kg) was 22635294 CFU / mouse and 34160000 CFU / mouse and 22750000 CFU / mouse and 19564286 CFU / mouse and 20000000 CFU / mouse and the “reduction of the bacterial load versus start of treatment” value (Mtb H37Rv [2]; IL-13tg mice lungs, 250 mg/kg/day, 10 days) was 0.9 log10 CFU. The “reduction of the bacterial burden” value (Mtb H37Rv [2]; IL-13tg mice lungs, 250 mg/kg/day, 10 days, versus before treatment) was 86%, the “bacterial burden after therapy as share of the initial CFU counts” value (Mtb H37Rv [2]; [7]) was 13.8% and the “mean pulmonary bacterial burden after treatment” value (Mtb H37Rv [2]; [7]) was 4.8 × 10^7 CFU. The “pulmonary bacterial burden after therapy” value (Mtb H37Rv [2]; IL-13tg mice, 250 mg/kg/day, 10 days, mean) was 7.69 log10 CFU, the “pulmonary CFU counts / mouse” value (Mtb H37Rv [2]; IL-13tg mice, female, 10 days BTZ-043 250 mg/kg, 250 mg/kg) was 22032000 and 27394286 and the “acid fast bacilli (AFB) within centrally necrotizing granulomas (ZN staining)” value (Mtb H37Rv [3]) was “most notable reduction in AFB within the layer of foamy macrophages”. The “ng/mg lung tissue, technical replicate 1” value ([4]; irradiation) was 5.99 ng/mg and 26 ng/mg and 6.57 ng/mg and 6.4 ng/mg and 5.5 ng/mg and 5.14 ng/mg and 5.58 ng/mg, the “ng/mg lung tissue, technical replicate 2” value ([4]; irradiation) was 6.75 ng/mg and 23.9 ng/mg and 6.81 ng/mg and 5.4 ng/mg and 6.51 ng/mg and 6.42 ng/mg and the “Extract concentration, technical replicate 1” value ([4]; irradiation) was 0.0193 µg/mL and 0.079 µg/mL and 0.0196 µg/mL and 0.0194 µg/mL and 0.0175 µg/mL and 0.0152 µg/mL and 0.0178 µg/mL. For the same molecule, the “Extract concentration, technical replicate 2” value ([4]; irradiation) was 0.0218 µg/mL and 0.0727 µg/mL and 0.0207 µg/mL and 0.0172 µg/mL and 0.0193 µg/mL and 0.0205 µg/mL, the “ng/mg lung tissue, Mean” value ([4]; irradiation) was 6.37 ng/mg and 6.57 ng/mg and 6.6 ng/mg and 5.45 ng/mg and 5.82 ng/mg and 6 ng/mg and the “ng/mg lung tissue, technical replicate 1” value ([4]; no irradiation) was 6.1 ng/mg and 5.48 ng/mg and 7.3 ng/mg and 4.22 ng/mg and 6.84 ng/mg and 6.88 ng/mg and 6.26 ng/mg. The “ng/mg lung tissue, technical replicate 2” value ([4]; no irradiation) was 6.14 ng/mg and 6.24 ng/mg and 7.55 ng/mg and 4.89 ng/mg and 8.49 ng/mg and 7.42 ng/mg and 7.29 ng/mg, the “Extract concentration, technical replicate 1” value ([4]; no irradiation) was 0.0195 µg/mL and 0.0179 µg/mL and 0.0233 µg/mL and 0.0135 µg/mL and 0.0216 µg/mL and 0.0204 µg/mL and 0.0187 µg/mL and the “Extract concentration, technical replicate 2” value ([4]; no irradiation) was 0.0197 µg/mL and 0.0204 µg/mL and 0.0241 µg/mL and 0.0156 µg/mL and 0.0268 µg/mL and 0.0221 µg/mL and 0.0218 µg/mL. The “ng/mg lung tissue, Mean” value ([4]; no irradiation) was 6.12 ng/mg and 5.86 ng/mg and 7.42 ng/mg and 4.56 ng/mg and 7.66 ng/mg and 7.15 ng/mg and 6.78 ng/mg, the “Conc. (Targetlynx export, sample extract)” value ([4]; BTZ-043 spiked liver homogenate section, no irradiation, injections 1 and a, internal standard reserpine) was 1.87E-02 and the “impact of γ-irradiation on the concentration and distribution of BTZ-043” value ([4]; liver mimetic cryosections, 5.85 kGy) was “does not impact”. The “BTZ-043 concentration in liver mimetic cryosection, outlier removed” value ([4]; spiked liver mimetic tissue, rout method outlier) was 24.95 ng/mg, the “AUC at which BTZ-043total exposure reaches saturation” value [5] was ~30,000 h·ng/mL and the “Cmax at which BTZ-043total exposure reaches saturation” value [5] was “around 8000 ng/mL”. For the same molecule, the Tmax [5] was 30 to 60 min.
